In PubChem BioAssay AID1963984 (Molecular Pharmacology Branch, DTP, NCI, 2024):

Test system: 233499-124-R-J3-PDC spheroids with HUVEC/MSC, viability
Test: Anticancer human tumor 233499-124-R-J3-PDC patient-derived colon adenocarcinoma cell line growth inhibition [PI3K]
Conditions: for IC50: curve of first compound; for viability, T/C: stronger effect = lower value
Procedure, shortened: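 Tumor cells were combined with HUVEC and MSCs into spheroids, then dosed with PI3K-inhibitor combinations over half-log ranges capped near clinical Cmax or 10 microM.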

[1] = second compound 0.00316 µM, first compound 0.0316 µM
[2] = second compound 0.00316 µM, first compound 0.1 µM
[3] = second compound 0.00316 µM, first compound 0.316 µM
[4] = second compound 0.00316 µM, first compound 1 µM
[5] = second compound 0.00316 µM, first compound 3.16 µM
[6] = second compound 0.00316 µM, first compound 10 µM
[7] = second compound 0.01 µM, first compound 0.0316 µM
[8] = second compound 0.01 µM, first compound 0.1 µM
[9] = second compound 0.01 µM, first compound 0.316 µM
[10] = second compound 0.01 µM, first compound 1 µM
[11] = second compound 0.01 µM, first compound 3.16 µM
[12] = second compound 0.01 µM, first compound 10 µM
[13] = second compound 0.0316 µM, first compound 0.0316 µM
[14] = second compound 0.0316 µM, first compound 0.1 µM
[15] = second compound 0.0316 µM, first compound 0.316 µM
[16] = second compound 0.0316 µM, first compound 1 µM
[17] = second compound 0.0316 µM, first compound 3.16 µM
[18] = second compound 0.0316 µM, first compound 10 µM
[19] = second compound 0.1 µM, first compound 0.0316 µM
[20] = second compound 0.1 µM, first compound 0.1 µM
[21] = second compound 0.1 µM, first compound 0.316 µM
[22] = second compound 0.1 µM, first compound 1 µM
[23] = second compound 0.1 µM, first compound 3.16 µM
[24] = second compound 0.1 µM, first compound 10 µM
[25] = second compound 0.316 µM, first compound 0.0316 µM
[26] = second compound 0.316 µM, first compound 0.1 µM
[27] = second compound 0.316 µM, first compound 0.316 µM
[28] = second compound 0.316 µM, first compound 1 µM
[29] = second compound 0.316 µM, first compound 3.16 µM
[30] = second compound 0.316 µM, first compound 10 µM
[31] = second compound 1 µM, first compound 0.0316 µM
[32] = second compound 1 µM, first compound 0.1 µM
[33] = second compound 1 µM, first compound 0.316 µM
[34] = second compound 1 µM, first compound 1 µM
[35] = second compound 1 µM, first compound 3.16 µM
[36] = second compound 1 µM, first compound 10 µM
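Also: spheroids exposed to agents for seven days before readout.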
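For viability, T/C in this document: percent viability relative to DMSO vehicle control taken as 100%.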

Compound: C=CC(=O)N1CCN(c2nc(=O)n(-c3c(C)ccnc3C(C)C)c3nc(-c4c(O)cccc4F)c(F)cc23)C(C)C1 (centres undefined) + COc1c(OCCCN2CCOCC2)ccc2c3n(c(=NC(=O)c4cnc(N)nc4)nc12)CCN3
- IC50 (second compound 0.00316 µM): > 10 µM
- IC50 (second compound 0.01 µM): > 10 µM
- IC50 (second compound 0.0316 µM): > 10 µM
- IC50 (second compound 0.1 µM): > 10 µM
- IC50 (second compound 0.316 µM): < 0.0316 µM
- IC50 (second compound 1 µM): < 0.0316 µM
- viability, T/C [1]: 98.1%
- viability, T/C [2]: 103%
- viability, T/C [3]: 87.8%
- viability, T/C [4]: 97.7%
- viability, T/C [5]: 88.4%
- viability, T/C [6]: 119%
- viability, T/C [7]: 109%
- viability, T/C [8]: 101%
- viability, T/C [9]: 85.5%
- viability, T/C [10]: 86.5%
- viability, T/C [11]: 84.6%
- viability, T/C [12]: 113%
- viability, T/C [13]: 94.1%
- viability, T/C [14]: 98.3%
- viability, T/C [15]: 85.3%
- viability, T/C [16]: 95.6%
- viability, T/C [17]: 103%
- viability, T/C [18]: 92.5%
- viability, T/C [19]: 101%
- viability, T/C [20]: 73.4%
- viability, T/C [21]: 88%
- viability, T/C [22]: 58.9%
- viability, T/C [23]: 67.6%
- viability, T/C [24]: 82%
- viability, T/C [25]: 46.3%
- viability, T/C [26]: 39.4%
- viability, T/C [27]: 33.1%
- viability, T/C [28]: 36.4%
- viability, T/C [29]: 43.7%
- viability, T/C [30]: 36%
- viability, T/C [31]: 10%
- viability, T/C [32]: 7.27%
- viability, T/C [33]: 12.6%
- viability, T/C [34]: 6.71%
- viability, T/C [35]: 15.8%
- viability, T/C [36]: 7.62%

Compound: Cn1nccc1Nc1nccc(-c2ccn(C(CO)c3ccc(Cl)c(F)c3)c(=O)c2)n1 (centres undefined) + COc1c(OCCCN2CCOCC2)ccc2c3n(c(=NC(=O)c4cnc(N)nc4)nc12)CCN3
- IC50 (second compound 0.00316 µM): > 10 µM
- IC50 (second compound 0.01 µM): > 10 µM
- IC50 (second compound 0.0316 µM): > 10 µM
- IC50 (second compound 0.1 µM): 0.791 µM
- IC50 (second compound 0.316 µM): < 0.0316 µM
- IC50 (second compound 1 µM): < 0.0316 µM
- viability, T/C [1]: 90.5%
- viability, T/C [2]: 86.6%
- viability, T/C [3]: 86.4%
- viability, T/C [4]: 91.4%
- viability, T/C [5]: 80.1%
- viability, T/C [6]: 70.1%
- viability, T/C [7]: 90%
- viability, T/C [8]: 78.2%
- viability, T/C [9]: 67.7%
- viability, T/C [10]: 78.3%
- viability, T/C [11]: 67%
- viability, T/C [12]: 56.3%
- viability, T/C [13]: 92.1%
- viability, T/C [14]: 75.9%
- viability, T/C [15]: 70.6%
- viability, T/C [16]: 65.9%
- viability, T/C [17]: 53.7%
- viability, T/C [18]: 54.3%
- viability, T/C [19]: 84.9%
- viability, T/C [20]: 72%
- viability, T/C [21]: 58.4%
- viability, T/C [22]: 46.2%
- viability, T/C [23]: 40.3%
- viability, T/C [24]: 24.4%
- viability, T/C [25]: 20.4%
- viability, T/C [26]: 37.7%
- viability, T/C [27]: 27.1%
- viability, T/C [28]: 14.2%
- viability, T/C [29]: 12%
- viability, T/C [30]: 9.88%
- viability, T/C [31]: 5.63%
- viability, T/C [32]: 5.4%
- viability, T/C [33]: 6.24%
- viability, T/C [34]: 5.85%
- viability, T/C [35]: 2.1%
- viability, T/C [36]: 1.53%
